Measured values: paper PMC11234460, “In Silico Discovery of Stapled Peptide Inhibitor Targeting the Nur77‐PPARγ Interaction and Its Anti‐Breast‐Cancer Efficacy” (Advanced Science, 2024)
Where a SMILES comes first, the peptide text is derived from it. Bridges are numbered along the chain shown (N, C = ends). [ ]: non-standard residue; d: D form. S5 = C=CCCC[C@](C)(N)C(=O)O

How the values were obtained:
[1] = tested on: MCF7 cells; assay: Transwell cell migration analysis; format: cell-based, human; conditions: MCF7, 12 h
Description: 600 µL DMEM complete medium was added to the lower chamber of the Transwell. Next, 2×10^4 cells in 100 µL DMEM medium, containing 1, 2, 5, 10, or 2 × 10^−5 M peptides, were added to the upper chamber of the Transwell. The cells were incubated for 12 h at 37 °C and 5% CO2. After the incubation period, the medium was discarded, and the chamber was washed with PBS. The cells were then fixed with 4% paraformaldehyde for 20 min. The upper chamber was subsequently soaked in crystal violet for 20 min, washed with PBS, and observed under a microscope for analysis.

[2] = tested on: MDA-MB-231-GFP tumor tissue; assay: LC/MS targeted lipid metabolome of xenograft tumor tissue; format: in vivo, mouse; conditions: compared with the control group
Description: To establish the bone metastasis tumor model, 1×10^5 cells were injected into the left ventricle of each mouse (7–8 weeks old), and surgery was monitored using a cardiac ultrasound instrument. The mice were randomly divided into three groups and treated with PBS (control group, n = 6), 5 mg kg^−1 ST‐CY14 (n = 6), and 10 mg kg^−1 ST‐CY14 (n = 6) Tumor cell metastasis was monitored using an in vivo imaging instrument (IVIS Spectrum, PerkinElmer, USA). by intraperitoneal injection of 20 mg kg^−1 D‐luciferin. The mice were treated with ST‐CY14 via intravenous injection using a 100 µL PBS solution every 2 days starting on the designated day after tumor cell injection. Bone tissue with MDA‐BoM‐1833 cell metastasis was obtained and stained for TRAP. The mice sera were collected and analyzed for BSP and β‐CTx levels using ELISA (Lengton, BPE10823, BPE10438). For the orthotopic xenograft tumor model, 3×10^6 cells were injected into the fourth pair of breast pads on the left side of the mouse (4–5 weeks old). The mice were treated with ST‐CY14 every two days once the tumor volume reached 30–50 mm^3, with the same groups as in the bone metastasis tumor model. […]

[3] = tested on: MDA-MB-231 cells; assay: Scratch (wound-healing) assay; format: cell-based; conditions: MDA-MB-231, 12 h
Description: MCF7 and MDA‐MB‐231 cells were seeded in 6‐well plates and cultured overnight. Once the cell density reached 90%, a line was scratched along the center of the 6‐well plate and images were taken randomly in the scratch domain under a microscope. The cells in each well were then treated with peptides of varying concentrations for 12 h, after which images were taken again in the scratch domain. The formula used to calculate the scratch healing rate was as follows: Scratch healing rate (%) = [(Scratch area at 0 h – Scratch area at 12 h) […] Scratch area at 0 h] × 100%.

Compound: C[C@@H](O)[C@@H]1NC(=O)[C@H](CCCNC(=N)N)NC(=O)[C@H](CCCNC(=N)N)NC(=O)[C@@](C)(NC(=O)[C@H](Cc2ccccc2)NC(=O)CNC(=O)[C@H](CCCCN)NC(=O)[C@H](CS)NC(=O)CNC(=O)[C@H](CCC(=O)O)NC(=O)[C@@H](N)CS)CCCC=CCCC[C@@](C)(C(=O)N[C@@H](CCCNC(=N)N)C(=O)N[C@@H](Cc2ccc(O)cc2)C(=O)N[C@@H](Cc2ccc(O)cc2)C(=O)NCC(=O)N[C@@H](CCCNC(=N)N)C(=O)N[C@@H](CCCCN)C(=O)N[C@@H](CCCCN)C(=O)N[C@@H](CCCNC(=N)N)C(=O)N[C@@H](CCCNC(=N)N)C(=O)N[C@@H](CCC(N)=O)C(=O)N[C@@H](CCCNC(=N)N)C(=O)N[C@@H](CCCNC(=N)N)C(=O)N[C@@H](CCCNC(=N)N)C(N)=O)NC1=O [ST-CY14] (H-CEGCKGF[S5]RRT[S5]RYYGRKKRRQRRR-NH2; staple 8-12)
- Transwell transmigration [1]: inhibited the transmigration
- Relative abundance of lipid content (FA, PC, TAG, PE) in tumor tissue [2]: decreased
- Scratch healing [3]: suppressed the scratch healing
